Assays:
Assay in all cases: KINOMEscan competition binding
Settings in all cases: compound 10.0 µM
NEK7 (human) = NEK7 (human) (UniProt Q8TDX7)
[1] = test system: FGFR3 (human), P22607 [G697C]
MAP3K12 (human) = MAP3K12 (human) (UniProt Q12852)
STK35 (human) = STK35 (human) (UniProt Q8TDR2)
AKT2 (human) = AKT2 (human) (UniProt P31751)
MAP4K5 (human) = MAP4K5 (human) (UniProt Q9Y4K4)
RPS6KA2 KD1 (human) = RPS6KA2 KD1 (human) (UniProt Q15349)
MAPK6 (human) = MAPK6 (human) (UniProt Q16659)
SRMS (human) = SRMS (human) (UniProt Q9H3Y6)
Chain of SRMS (human) (Q9H3Y6 whole entry, looked up): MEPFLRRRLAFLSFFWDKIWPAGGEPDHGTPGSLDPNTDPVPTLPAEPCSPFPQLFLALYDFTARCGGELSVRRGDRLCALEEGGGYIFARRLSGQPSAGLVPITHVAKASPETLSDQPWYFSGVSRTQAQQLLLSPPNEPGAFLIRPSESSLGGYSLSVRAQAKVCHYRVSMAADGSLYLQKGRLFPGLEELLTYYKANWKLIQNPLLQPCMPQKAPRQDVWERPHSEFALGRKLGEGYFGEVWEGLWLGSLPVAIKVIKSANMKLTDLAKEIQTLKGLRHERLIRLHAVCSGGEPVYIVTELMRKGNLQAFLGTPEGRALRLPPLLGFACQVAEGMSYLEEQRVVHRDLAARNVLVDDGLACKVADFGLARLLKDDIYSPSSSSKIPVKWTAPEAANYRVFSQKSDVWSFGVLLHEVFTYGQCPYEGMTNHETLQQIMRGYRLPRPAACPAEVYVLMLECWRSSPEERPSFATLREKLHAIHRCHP

ABL2 (human) = ABL2 (human) (UniProt P42684)
[2] = test system: EGFR (human), P00533 [L861Q]
MARK1 (human) = MARK1 (human) (UniProt Q9P0L2)
Chain of MARK1 (human) (Q9P0L2 whole entry, looked up): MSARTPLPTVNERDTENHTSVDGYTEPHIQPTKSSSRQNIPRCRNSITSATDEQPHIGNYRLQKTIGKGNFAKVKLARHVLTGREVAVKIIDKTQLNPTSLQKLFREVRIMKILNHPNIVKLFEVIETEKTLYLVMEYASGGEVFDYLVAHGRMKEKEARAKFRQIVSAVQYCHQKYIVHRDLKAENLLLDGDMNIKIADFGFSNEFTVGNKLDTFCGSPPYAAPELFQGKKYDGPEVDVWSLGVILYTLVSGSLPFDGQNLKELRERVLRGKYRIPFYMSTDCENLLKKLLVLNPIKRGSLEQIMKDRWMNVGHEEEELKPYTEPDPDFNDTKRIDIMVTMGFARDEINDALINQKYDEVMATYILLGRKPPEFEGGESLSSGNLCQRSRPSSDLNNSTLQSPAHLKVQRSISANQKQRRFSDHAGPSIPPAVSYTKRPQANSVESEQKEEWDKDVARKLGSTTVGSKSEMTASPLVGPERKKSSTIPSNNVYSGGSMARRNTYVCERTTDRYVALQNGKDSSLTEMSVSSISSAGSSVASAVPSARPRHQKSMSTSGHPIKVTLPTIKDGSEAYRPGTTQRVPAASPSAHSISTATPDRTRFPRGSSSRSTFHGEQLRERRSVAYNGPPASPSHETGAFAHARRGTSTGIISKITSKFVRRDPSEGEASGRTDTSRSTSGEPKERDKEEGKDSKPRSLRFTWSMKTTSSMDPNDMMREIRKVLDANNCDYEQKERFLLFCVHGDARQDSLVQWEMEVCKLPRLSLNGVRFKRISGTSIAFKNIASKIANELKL

EIF2AK2 (human) = EIF2AK2 (human) (UniProt P19525)
[3] = test system: RET (human), P07949 [V804L]
PLK3 (human) = PLK3 (human) (UniProt Q9H4B4)
Chain of PLK3 (human) (Q9H4B4 whole entry, looked up): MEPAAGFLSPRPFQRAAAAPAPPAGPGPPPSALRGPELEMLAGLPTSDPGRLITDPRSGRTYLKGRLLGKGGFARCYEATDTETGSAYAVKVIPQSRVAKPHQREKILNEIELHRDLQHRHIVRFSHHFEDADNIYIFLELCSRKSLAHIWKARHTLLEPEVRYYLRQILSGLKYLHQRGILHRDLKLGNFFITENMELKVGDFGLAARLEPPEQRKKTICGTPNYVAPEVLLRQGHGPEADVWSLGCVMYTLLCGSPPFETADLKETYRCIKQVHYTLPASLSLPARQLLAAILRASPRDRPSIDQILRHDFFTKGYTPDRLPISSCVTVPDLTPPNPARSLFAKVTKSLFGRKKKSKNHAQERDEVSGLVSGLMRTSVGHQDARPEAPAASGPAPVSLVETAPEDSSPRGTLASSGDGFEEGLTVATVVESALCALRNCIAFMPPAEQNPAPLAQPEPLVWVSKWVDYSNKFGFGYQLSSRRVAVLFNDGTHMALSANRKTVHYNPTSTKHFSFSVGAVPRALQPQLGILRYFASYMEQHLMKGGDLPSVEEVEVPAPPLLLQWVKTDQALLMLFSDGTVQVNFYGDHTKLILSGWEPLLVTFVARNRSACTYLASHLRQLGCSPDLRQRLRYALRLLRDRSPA

MAPK7 (human) = MAPK7 (human) (UniProt Q13164)
Chain of MAPK7 (human) (Q13164 whole entry, looked up): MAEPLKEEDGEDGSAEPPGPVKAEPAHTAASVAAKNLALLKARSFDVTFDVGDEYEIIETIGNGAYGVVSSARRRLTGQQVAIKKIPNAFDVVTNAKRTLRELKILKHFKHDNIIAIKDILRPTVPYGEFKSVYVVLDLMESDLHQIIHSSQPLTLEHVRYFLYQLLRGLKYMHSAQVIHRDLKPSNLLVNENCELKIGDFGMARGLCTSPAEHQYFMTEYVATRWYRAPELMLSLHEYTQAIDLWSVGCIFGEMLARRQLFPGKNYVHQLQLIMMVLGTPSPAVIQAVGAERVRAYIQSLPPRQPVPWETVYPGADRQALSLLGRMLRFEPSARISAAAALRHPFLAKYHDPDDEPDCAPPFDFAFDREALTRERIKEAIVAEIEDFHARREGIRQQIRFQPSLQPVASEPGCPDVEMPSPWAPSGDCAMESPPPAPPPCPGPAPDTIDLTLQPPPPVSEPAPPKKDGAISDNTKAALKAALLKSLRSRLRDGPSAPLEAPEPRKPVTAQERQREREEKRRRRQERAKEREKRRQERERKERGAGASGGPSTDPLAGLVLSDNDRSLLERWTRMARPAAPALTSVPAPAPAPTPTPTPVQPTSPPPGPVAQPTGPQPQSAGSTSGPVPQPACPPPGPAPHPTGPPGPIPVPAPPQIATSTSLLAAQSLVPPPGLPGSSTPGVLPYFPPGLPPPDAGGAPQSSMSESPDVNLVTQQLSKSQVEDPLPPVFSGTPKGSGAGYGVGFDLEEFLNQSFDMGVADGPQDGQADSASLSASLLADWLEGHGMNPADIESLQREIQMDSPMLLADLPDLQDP

LTK (human) = LTK (human) (UniProt P29376)
FYN (human) = FYN (human) (UniProt P06241)
CHEK1 (human) = CHEK1 (human) (UniProt O14757)
CSK (human) = CSK (human) (UniProt P41240)
Chain of CSK (human) (P41240 whole entry, looked up): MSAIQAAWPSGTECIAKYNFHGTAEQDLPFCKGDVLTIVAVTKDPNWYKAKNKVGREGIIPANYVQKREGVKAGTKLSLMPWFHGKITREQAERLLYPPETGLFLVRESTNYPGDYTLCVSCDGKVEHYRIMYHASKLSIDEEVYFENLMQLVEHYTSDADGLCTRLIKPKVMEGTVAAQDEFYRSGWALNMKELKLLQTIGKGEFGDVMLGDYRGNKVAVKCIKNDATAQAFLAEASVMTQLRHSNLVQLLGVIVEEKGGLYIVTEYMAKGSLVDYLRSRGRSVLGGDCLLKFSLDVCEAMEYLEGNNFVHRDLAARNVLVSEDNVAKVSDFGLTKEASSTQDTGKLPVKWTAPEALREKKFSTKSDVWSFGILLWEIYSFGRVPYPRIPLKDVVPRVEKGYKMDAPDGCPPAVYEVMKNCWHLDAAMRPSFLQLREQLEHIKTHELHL

NTRK3 (human) = NTRK3 (human) (UniProt Q16288)
EPHA6 (human) = EPHA6 (human) (UniProt Q9UF33)
CAMK2B (human) = CAMK2B (human) (UniProt Q13554)
FRK (human) = FRK (human) (UniProt P42685)
NEK6 (human) = NEK6 (human) (UniProt Q9HC98)
SRC (human) = SRC (human) (UniProt P12931)
PIK3CD (human) = PIK3CD (human) (UniProt O00329)
STK4 (human) = STK4 (human) (UniProt Q13043)
Chain of STK4 (human) (Q13043 whole entry, looked up): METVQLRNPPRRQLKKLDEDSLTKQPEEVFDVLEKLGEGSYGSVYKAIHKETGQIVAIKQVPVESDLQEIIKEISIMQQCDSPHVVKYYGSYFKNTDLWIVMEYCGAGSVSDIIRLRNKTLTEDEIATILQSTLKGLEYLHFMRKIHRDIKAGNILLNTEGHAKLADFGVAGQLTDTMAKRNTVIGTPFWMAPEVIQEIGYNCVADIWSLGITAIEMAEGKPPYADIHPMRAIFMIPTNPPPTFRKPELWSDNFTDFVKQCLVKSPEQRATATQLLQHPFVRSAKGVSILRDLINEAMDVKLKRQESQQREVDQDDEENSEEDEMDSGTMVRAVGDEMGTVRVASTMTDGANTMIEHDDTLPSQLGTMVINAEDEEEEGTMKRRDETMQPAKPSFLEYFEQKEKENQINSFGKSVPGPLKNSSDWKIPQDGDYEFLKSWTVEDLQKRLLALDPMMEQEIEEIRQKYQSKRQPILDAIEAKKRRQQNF

PAK2 (human) = PAK2 (human) (UniProt Q13177)
HCK (human) = HCK (human) (UniProt P08631)
MAPK14 (human) = MAPK14 (human) (UniProt Q16539)
CDK18 (human) = CDK18 (human) (UniProt Q07002)
CDK3 (human) = CDK3 (human) (UniProt Q00526)
PRKG2 (human) = PRKG2 (human) (UniProt Q13237)
ULK3 (human) = ULK3 (human) (UniProt Q6PHR2)
[4] = biological target: TYK2 JH1 catalytic (human) (UniProt P29597)
STK25 (human) = STK25 (human) (UniProt O00506)
SLK (human) = SLK (human) (UniProt Q9H2G2)
[5] = test system: RET (human), P07949 [M918T]
ABL1 (human) = ABL1 (human) (UniProt P00519)
RPS6KA4 KD1 (human) = RPS6KA4 KD1 (human) (UniProt O75676)
[6] = test system: EGFR (human), P00533 [A750P; 747-749 del]

Chain of AKT2 (human) (P31751 whole entry, looked up): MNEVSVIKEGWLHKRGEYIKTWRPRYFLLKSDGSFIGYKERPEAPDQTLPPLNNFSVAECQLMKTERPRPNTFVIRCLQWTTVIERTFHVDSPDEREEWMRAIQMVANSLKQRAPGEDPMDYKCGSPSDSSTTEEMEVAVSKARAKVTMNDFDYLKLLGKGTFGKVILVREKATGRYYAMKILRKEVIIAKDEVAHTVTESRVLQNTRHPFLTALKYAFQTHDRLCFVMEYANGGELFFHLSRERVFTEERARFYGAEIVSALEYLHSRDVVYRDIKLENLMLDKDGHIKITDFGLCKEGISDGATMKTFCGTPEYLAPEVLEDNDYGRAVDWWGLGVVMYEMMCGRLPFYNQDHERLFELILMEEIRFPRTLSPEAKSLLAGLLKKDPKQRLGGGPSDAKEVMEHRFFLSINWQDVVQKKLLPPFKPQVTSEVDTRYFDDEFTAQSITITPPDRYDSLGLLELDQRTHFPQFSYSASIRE
Chain of MAP4K5 (human) (Q9Y4K4 whole entry, looked up): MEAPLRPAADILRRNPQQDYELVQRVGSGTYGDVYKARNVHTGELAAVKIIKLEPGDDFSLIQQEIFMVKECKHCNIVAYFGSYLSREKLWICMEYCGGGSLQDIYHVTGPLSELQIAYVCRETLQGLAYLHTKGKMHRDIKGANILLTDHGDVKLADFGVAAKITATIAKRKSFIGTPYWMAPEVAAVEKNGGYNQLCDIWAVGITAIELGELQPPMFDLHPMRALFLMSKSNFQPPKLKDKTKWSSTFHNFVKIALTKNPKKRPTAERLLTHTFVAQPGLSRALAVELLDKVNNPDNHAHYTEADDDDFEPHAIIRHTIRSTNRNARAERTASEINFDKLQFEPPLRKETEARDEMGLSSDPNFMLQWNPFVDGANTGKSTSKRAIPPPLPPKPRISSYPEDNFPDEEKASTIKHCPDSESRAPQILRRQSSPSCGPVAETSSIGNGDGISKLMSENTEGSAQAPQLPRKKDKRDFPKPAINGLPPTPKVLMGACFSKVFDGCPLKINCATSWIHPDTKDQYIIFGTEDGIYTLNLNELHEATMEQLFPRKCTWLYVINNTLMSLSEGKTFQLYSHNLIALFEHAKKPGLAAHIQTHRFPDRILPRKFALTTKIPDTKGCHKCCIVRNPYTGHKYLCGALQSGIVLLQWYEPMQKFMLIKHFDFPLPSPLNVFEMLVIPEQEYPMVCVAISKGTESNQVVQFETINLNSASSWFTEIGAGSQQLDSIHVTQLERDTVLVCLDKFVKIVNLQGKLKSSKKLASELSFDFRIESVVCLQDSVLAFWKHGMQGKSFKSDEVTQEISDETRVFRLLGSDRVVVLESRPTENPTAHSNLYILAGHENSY

CN1C(=O)c2ccccc2N(C)c2nc(Nc3ccc(N4CCC(O)CC4)cc3)ncc21
kinase still bound, per cent of control (NEK7 (human)): 100%
kinase still bound, per cent of control [1]: 81%
kinase still bound, per cent of control (MAP3K12 (human)): 85%
kinase still bound, per cent of control (STK35 (human)): 96%
kinase still bound, per cent of control (AKT2 (human)): 100%
kinase still bound, per cent of control (MAP4K5 (human)): 85%
kinase still bound, per cent of control (RPS6KA2 KD1 (human)): 68%
kinase still bound, per cent of control (MAPK6 (human)): 97%
kinase still bound, per cent of control (SRMS (human)): 87%
kinase still bound, per cent of control (ABL2 (human)): 33%
kinase still bound, per cent of control [2]: 100%
kinase still bound, per cent of control (MARK1 (human)): 59%
kinase still bound, per cent of control (EIF2AK2 (human)): 100%
kinase still bound, per cent of control [3]: 1.7%
kinase still bound, per cent of control (PLK3 (human)): 97%
kinase still bound, per cent of control (MAPK7 (human)): 0.25%
kinase still bound, per cent of control (LTK (human)): 100%
kinase still bound, per cent of control (FYN (human)): 35%
kinase still bound, per cent of control (CHEK1 (human)): 76%
kinase still bound, per cent of control (CSK (human)): 91%
kinase still bound, per cent of control (NTRK3 (human)): 82%
kinase still bound, per cent of control (EPHA6 (human)): 100%
kinase still bound, per cent of control (CAMK2B (human)): 100%
kinase still bound, per cent of control (FRK (human)): 70%
kinase still bound, per cent of control (NEK6 (human)): 96%
kinase still bound, per cent of control (SRC (human)): 21%
kinase still bound, per cent of control (PIK3CD (human)): 58%
kinase still bound, per cent of control (STK4 (human)): 80%
kinase still bound, per cent of control (PAK2 (human)): 81%
kinase still bound, per cent of control (HCK (human)): 35%
kinase still bound, per cent of control (MAPK14 (human)): 100%
kinase still bound, per cent of control (CDK18 (human)): 100%
kinase still bound, per cent of control (CDK3 (human)): 100%
kinase still bound, per cent of control (PRKG2 (human)): 95%
kinase still bound, per cent of control (ULK3 (human)): 77%
kinase still bound, per cent of control [4]: 1.9%
kinase still bound, per cent of control (STK25 (human)): 96%
kinase still bound, per cent of control (SLK (human)): 100%
kinase still bound, per cent of control [5]: 4.2%
kinase still bound, per cent of control (ABL1 (human)): 3.2%
kinase still bound, per cent of control (RPS6KA4 KD1 (human)): 100%
kinase still bound, per cent of control [6]: 98%

CN1CCN(c2ccc(C(=O)Nc3ncc4c(n3)N(C)c3ccccc3C(=O)N4C)cc2)CC1
kinase still bound, per cent of control (NEK7 (human)): 100%
kinase still bound, per cent of control [1]: 98%
kinase still bound, per cent of control (MAP3K12 (human)): 87%
kinase still bound, per cent of control (STK35 (human)): 100%
kinase still bound, per cent of control (AKT2 (human)): 100%
kinase still bound, per cent of control (MAP4K5 (human)): 100%
kinase still bound, per cent of control (RPS6KA2 KD1 (human)): 100%
kinase still bound, per cent of control (MAPK6 (human)): 70%
kinase still bound, per cent of control (SRMS (human)): 96%
kinase still bound, per cent of control (ABL2 (human)): 100%
kinase still bound, per cent of control [2]: 88%
kinase still bound, per cent of control (MARK1 (human)): 96%
kinase still bound, per cent of control (EIF2AK2 (human)): 100%
kinase still bound, per cent of control [3]: 100%
kinase still bound, per cent of control (PLK3 (human)): 100%
kinase still bound, per cent of control (MAPK7 (human)): 65%
kinase still bound, per cent of control (LTK (human)): 86%
kinase still bound, per cent of control (FYN (human)): 95%
kinase still bound, per cent of control (CHEK1 (human)): 100%
kinase still bound, per cent of control (CSK (human)): 100%
kinase still bound, per cent of control (NTRK3 (human)): 84%
kinase still bound, per cent of control (EPHA6 (human)): 100%
kinase still bound, per cent of control (CAMK2B (human)): 98%
kinase still bound, per cent of control (FRK (human)): 100%
kinase still bound, per cent of control (NEK6 (human)): 100%
kinase still bound, per cent of control (SRC (human)): 100%
kinase still bound, per cent of control (PIK3CD (human)): 100%
kinase still bound, per cent of control (STK4 (human)): 93%
kinase still bound, per cent of control (PAK2 (human)): 100%
kinase still bound, per cent of control (HCK (human)): 100%
kinase still bound, per cent of control (MAPK14 (human)): 100%
kinase still bound, per cent of control (CDK18 (human)): 100%
kinase still bound, per cent of control (CDK3 (human)): 100%
kinase still bound, per cent of control (PRKG2 (human)): 90%
kinase still bound, per cent of control (ULK3 (human)): 100%
kinase still bound, per cent of control [4]: 44%
kinase still bound, per cent of control (STK25 (human)): 100%
kinase still bound, per cent of control (SLK (human)): 100%
kinase still bound, per cent of control [5]: 98%
kinase still bound, per cent of control (ABL1 (human)): 85%
kinase still bound, per cent of control (RPS6KA4 KD1 (human)): 100%
kinase still bound, per cent of control [6]: 100%

CN1C(=O)c2ccccc2N(C)c2nc(NS(=O)(=O)c3ccc(N)cc3)ncc21
kinase still bound, per cent of control (NEK7 (human)): 89%
kinase still bound, per cent of control [1]: 100%
kinase still bound, per cent of control (MAP3K12 (human)): 90%
kinase still bound, per cent of control (STK35 (human)): 100%
kinase still bound, per cent of control (AKT2 (human)): 100%
kinase still bound, per cent of control (MAP4K5 (human)): 100%
kinase still bound, per cent of control (RPS6KA2 KD1 (human)): 100%
kinase still bound, per cent of control (MAPK6 (human)): 78%
kinase still bound, per cent of control (SRMS (human)): 84%
kinase still bound, per cent of control (ABL2 (human)): 100%
kinase still bound, per cent of control [2]: 84%
kinase still bound, per cent of control (MARK1 (human)): 100%
kinase still bound, per cent of control (EIF2AK2 (human)): 91%
kinase still bound, per cent of control [3]: 100%
kinase still bound, per cent of control (PLK3 (human)): 100%
kinase still bound, per cent of control (MAPK7 (human)): 100%
kinase still bound, per cent of control (LTK (human)): 82%
kinase still bound, per cent of control (FYN (human)): 100%
kinase still bound, per cent of control (CHEK1 (human)): 98%
kinase still bound, per cent of control (CSK (human)): 100%
kinase still bound, per cent of control (NTRK3 (human)): 72%
kinase still bound, per cent of control (EPHA6 (human)): 100%
kinase still bound, per cent of control (CAMK2B (human)): 100%
kinase still bound, per cent of control (FRK (human)): 100%
kinase still bound, per cent of control (NEK6 (human)): 100%
kinase still bound, per cent of control (SRC (human)): 100%
kinase still bound, per cent of control (PIK3CD (human)): 91%
kinase still bound, per cent of control (STK4 (human)): 71%
kinase still bound, per cent of control (PAK2 (human)): 100%
kinase still bound, per cent of control (HCK (human)): 100%
kinase still bound, per cent of control (MAPK14 (human)): 100%
kinase still bound, per cent of control (CDK18 (human)): 100%
kinase still bound, per cent of control (CDK3 (human)): 100%
kinase still bound, per cent of control (PRKG2 (human)): 100%
kinase still bound, per cent of control (ULK3 (human)): 100%
kinase still bound, per cent of control [4]: 38%
kinase still bound, per cent of control (STK25 (human)): 100%
kinase still bound, per cent of control (SLK (human)): 100%
kinase still bound, per cent of control [5]: 100%
kinase still bound, per cent of control (ABL1 (human)): 99%
kinase still bound, per cent of control (RPS6KA4 KD1 (human)): 100%
kinase still bound, per cent of control [6]: 100%
